Laboratory results taken from patent US20050153872A1, “Methods and compositions for the treatment of infection” (priority 2004, published 2005).
Where two headings read alike, the source gives them in different places.

Assays:
[1] = tested on: Staphylococcus aureus MRSA 02-18; assay: In vivo protection of infected mice; design: species or system Kungming mice; conditions: Staphylococcus aureus, MRSA
Protocol: (§1) The following experiments were performed by Pharmacology Lab, National Sichuan antibiotic industril institute, Chengdu, Sichuan.
(§2) The agents described above were diluted with sterilized water to final concentrations of 10 mg/L, 5 mg/Land 2.5 mg/L.
(§3) Staphylococcus aureus ATCC BAA-42(MRSA) and enterococcus faecalis ATCC 700802 were used as control strains.
(§4) 170 mice (Kungming mice: 18˜22 g, 85 males and 85 females) were randomly divided into four groups and injected with a fatal dosage of staphylococci, enterococcus and E. coli intraperitoneally. […] Mice were inspected every 24 hours for 7-14 days. Dead mice were counted as positive results. The results are depicted in Table 3 and FIGS. 4 and 5A-B.

[2] = tested on: Staphylococcus aureus MRSA BAA-42; assay: In vivo protection of infected mice; design: species or system Kungming mice; conditions: Staphylococcus aureus
Protocol: as §1, §2, §3, §4

[3] = tested on: Enterococcus faecalis ATCC 700802; assay: In vivo protection of infected mice; design: species or system Kungming mice; conditions: Enterococcus faecalis
Protocol: as §1, §2, §3, §4

Escherichia coli 02-1-65 [4] = assay: In vivo protection of infected mice; design: species or system Kungming mice; conditions: i.p. infection 3.3 × 10^5 cfu/ml, read-out: ED50
Protocol: as §1
(§5) The agents described above were diluted with sterilized water to final concentrations of 10 mg/L, 5 mg/Land 2.5 mg/L. […]
as §4

[5] = tested on: Staphylococcus aureus ATCC 29213; assay: In vivo protection of infected mice; design: species or system Kungming mice; conditions: Staphylococcus aureus, i.p. infection 3.6 × 10^5 cfu/ml, read-out: ED50
Protocol: as §1, §5, §4

[6] = tested on: Staphylococcus aureus MRSA 02-18; assay: microbe, parasite or virus in culture; type: cell-based; conditions: Staphylococcus aureus, MRSA
[7] = tested on: Staphylococcus aureus MRSA BAA-42; assay: microbe, parasite or virus in culture; type: cell-based; conditions: Staphylococcus aureus
[8] = tested on: Candida albicans ATCC 10231; assay: In vitro cell growth inhibition assay (OD595, filaments); conditions: Ph-CA 5 μg/ml; Ph-SA 5 μg/ml; ampicillin 50 μg/ml; amphotericin B 200 ng/ml; fluconazole 3 μg/ml
[9] = tested on: Staphylococcus aureus ATCC 29213; assay: MIC against challenge strain (Table 3); type: cell-based; conditions: ATCC29213, read-out: MIC
Escherichia coli 02-1-65 [10] = assay: MIC against challenge strain (Table 3); type: cell-based; conditions: 02165, read-out: MIC
[11] = tested on: Staphylococcus epidermidis MSSE strain (21); assay: In vitro antibacterial activity (MIC), clinical isolates; type: cell-based; conditions: Staphylococcus epidermidis, 21 MSSE clinical isolates
Protocol: (§6) The following experiments were performed by Lab. of Pharmacology, National Sichuan antibiotic industril institute, Chengdu, Sichuan.
(§7) The following agents were used to test the in vitro activity of Ph-SA:
(§8) All the bacterial strains used in the experiments were clinical isolates collected from Sichuan and Beijing in 2002 and identified by West China Hospital, Sichuan University and Chongqing University of Medical Sciences with API system. The following strains were used in the experiments detailed below: Staphylococcus aureus 168 strains (MRSA 80 strains and MSSA 88 strains) Staphylococcus epidermidis 46 strains (MRSE 25 strains and MSSE 21 strains), Enterococcus 20 strains, and Acenetobactor 20 strains. Staphylococcus aureus ATCC25923, 29213 and BAA-42 were used as control strains. Bacterial strains were contacted with one of the above described compounds and MIC50, MIC90 and MICScope were determined.

[12] = tested on: Staphylococcus aureus MRSA strain (80); assay: as above; type: cell-based
Protocol: as §6, §7, §8

[13] = tested on: Staphylococcus aureus MSSA strain (88); assay: as above; type: cell-based; conditions: Staphylococcus aureus, MSSA
Protocol: as §6, §7, §8

Enterococcus (20) = assay: as above; type: cell-based; conditions: 20 Enterococcus clinical isolates
Protocol: as §6, §7, §8

Acenetobactor (20) = assay: as above; type: cell-based
Protocol: as §6, §7, §8

[14] = tested on: Staphylococcus epidermidis MRSE strain (25); assay: as above; type: cell-based
Protocol: as §6, §7, §8

[15] = tested on: Enterococcus faecalis ATCC 700802; assay: microbe, parasite or virus in culture; type: cell-based; conditions: Enterococcus faecalis, ATCC700802
[16] = Staphylococcus epidermidis, MRSE

CC1(C)S[C@@H]2[C@H](NC(=O)[C@H](N)c3ccccc3)C(=O)N2[C@H]1C(=O)O [Ampicillin, sodium ampicillin]
ED50 [1]: > 20 mg/kg
ED50 ([1]; 1 h): 32.7 mg/kg
ED50 [2]: 23.4 mg/kg
ED50 ([2]; 1 h): 25.2 mg/kg
ED50 ([3]; ATCC700802): 3 mg/kg
ED50 ([3]; ATCC700802, 1 h): 3.37 mg/kg
ED50 (Escherichia coli 02-1-65 [4]; Escherichia coli, 02165, 2nd Time (value in parentheses), i.v. treatment): > 30.8 mg/kg
ED50 (Escherichia coli 02-1-65 [4]; Escherichia coli, 02165, 1 h, 1st Time, i.v. treatment after one hour): > 30.8 mg/kg
ED50 ([5]; ATCC29213, 2nd Time (value in parentheses), i.v. treatment): 12.3 mg/kg
ED50 ([5]; ATCC29213, 1 h, 1st Time, i.v. treatment after one hour): 14.2 mg/kg
MIC [6]: 8 µg/mL
MIC [7]: 0.25 µg/mL
effect on growth of Candida albicans [8]: no effect on the growth
MIC [9]: < 0.015 µg/mL
MIC (Escherichia coli 02-1-65 [10]): > 128 µg/mL
MIC [11]: 0.015 to 0.25 µg/mL
MIC50 ([11]; read-out: MIC50): 0.03 µg/mL
MIC90 ([11]; read-out: MIC90): 0.25 µg/mL
MIC Scope ([12]; 80 MRSA clinical isolates): 0.06˜64 mg/l
MIC50 ([12]; Staphylococcus aureus, MRSA): 16 µg/mL
MIC90 ([12]; Staphylococcus aureus, MRSA): 32 µg/mL
MIC50 [13]: 0.25 µg/mL
MIC90 [13]: 1 µg/mL
MIC ([13]; read-out: MIC Scope): 0.015 to 0.25 µg/mL
MIC (Enterococcus (20)): 0.25 to 16 µg/mL
MIC50 (Enterococcus (20); read-out: MIC50): 0.5 µg/mL
MIC90 (Enterococcus (20); read-out: MIC90): 16 µg/mL
MIC50 (Acenetobactor (20)): > 128 µg/mL
MIC90 (Acenetobactor (20)): > 128 µg/mL
MIC Scope ([14]; 25 MRSE clinical isolates): 0.06˜64 mg/l
MIC50 [14, 16]: 16 µg/mL
MIC90 [14, 16]: 64 µg/mL
MIC [15]: 0.125 µg/mL
